{"source": "patent US20040034021A1", "about": "“Intravenous rifalazil formulation and methods of use thereof” (priority 2002, published 2004)", "key": {"[1]": {"test": "stability against hydrolytic degradation to des-acetyl rifalazil (HPLC)", "type": "physicochemical", "experimental": "Rifalazil solutions containing the micelle-forming excipient PEG-35 castor oil, prepared as described in Example 2, and without a micelle-forming excipient (15% ethanol, phosphate buffer pH=7.6, 0.9% NaCl) were monitored for stability against the hydrolytic degradation of rifalazil at temperatures of 25° C., 40° C., 50° C., and 60° C. (see FIGS. 7 and 8). The degradation was monitored for several days by HPLC for the disappearance of rifalazil or the appearance of des-acetyl rifalazil, the degradation product that results from the hydrolysis of rifalazil."}, "[2]": {"test": "solubility of rifalazil in aqueous test solutions (UV-Vis)", "type": "physicochemical", "experimental": "In order to determine its solubility, to a vial containing solid rifalazil was added a volume of aqueous test solution. The vial was capped and sonicated for about an hour and the remaining undissolved solids were left to settle overnight. The vial was then vortexed for 1 minute, sonicated for another 30 minutes, and centrifuged for 1 hour at 3500 RPM. The supernatent was separated from undissolved rifalazil. The concentration of rifalazil in the test solution was determined by UV-Vis absorbance using a suitable spectrophotometer. Using this method, the solubility of rifalazil was determined as a function of pH (see FIG. 1); in PEG 400-water, propylene glycol-water, and ethanol-water mixtures (see FIG. 2); in Tween-40-water and Tween-80-water mixtures (see FIG. 3); in dodecyltrimethylammonium bromide-water, sodium chenodeoxycholate-water, sodium Octylsulfate-water, sodium deoxycholate-water, sodium cholate-water, and sodium dodecylsulfate-water mixtures (see FIG. 4); in sodium dodecylsulfate- water mixtures at pH 5.4 and 7.4 (see FIG. 5); and in PEG-35 castor oil-water mixtures (see FIG. 6)."}, "[3]": {"system": "S. aureus", "test": "MIC by broth microdilution method", "type": "cell-based", "conditions": "Staphylococcus aureus, CAMH broth, vehicle as in Example 2, 35-37° C., 20-24 hours", "experimental": "The MIC (minimum inhibitory concentration) of rifalazil against S. aureus was determined by the broth microdilution method. A vehicle prepared as described in Example 2 was diluted in Cation Adjusted Mueller-Hinton (CAMH) broth to create working solutions that were 4× the maximum concentration to be tested on each microtiter plate. The 4× working solutions were added to the wells of the 96 well microtiter plate and serially diluted two-fold across 11 wells into CAMH.\nTo prepare the test strain inoculum, 3-5 colonies of S. aureus from a pure 18-24 hour culture grown on a primary agar plate were emulsified into demineralized water and adjusted to a 0.5 McFarland turbidity standard using a calibrated nephelometer. This suspension was then diluted further (1:100) into CAMH broth to yield an inoculum suspension containing approximately 10^6 CFU/ml. Aliquots of the inoculum suspension were added to the rifalazil-containing wells to yield a final concentration in the well of 1-8×10^5 CFU/ml. The microtiter plates were incubated at 35-37° C. for 20-24 hours. The MIC was read as the lowest concentration of the compound that inhibits visible growth."}}}
{"smiles": "CO[C@H]1/C=C/O[C@@]2(C)Oc3c(C)c(O)c4c(=O)c(c5oc6cc(N7CCN(CC(C)C)CC7)cc(O)c6nc-5c4c3C2=O)NC(=O)/C(C)=C\\C=C\\[C@H](C)[C@H](O)[C@@H](C)[C@@H](O)[C@@H](C)[C@H](OC(C)=O)[C@@H]1C", "note": "[Rifalazil, rifalazil]", "values": [{"measurement": "effect of micelle-forming excipient on hydrolytic degradation of rifalazil", "setting": "[1]; PEG-35 castor oil solution of Example 2 vs 15% ethanol, phosphate buffer pH 7.6, 0.9% NaCl, 25-60° C. (FIGS. 7 and 8)", "result": "inhibits the hydrolytic degradation"}, {"measurement": "hydrolytic degradation of rifalazil", "setting": "[1]; aqueous environments under ambient conditions, no micelle-forming excipient (FIG. 8)", "result": "occurs readily"}, {"measurement": "ratio of 100 μg/mL (typical low IV dosage concentration) to solubility of the drug in water", "setting": "[2]; water at pH 7 (FIG. 1)", "result": "5,000 times"}, {"measurement": "solubility in water", "setting": "[2]; water at physiological pH", "result": "virtually insoluble"}, {"measurement": "MIC", "setting": "[3]", "result": 0.015, "unit": "µg/mL"}]}
